Target: T1, CFTR (Homo sapiens, UniProt P13569, DEL508-508)
T1 construct: Primary CF airway epithelial cells were obtained from the UNC Cystic Fibrosis Tissue Procurement and Cell Culture Core; host or cells: primary CF airway epithelial cells
Assay: Equivalent current assay in Primary CF airway epithelial cells (NAUC)
Assay type: cell-based
Settings: 24 h, normalized to VX809 (3 μM) positive control; for Nauc @ 3 μM: 3 μM test compound; for Nauc @ 10 μM: 10 μM test compound
Procedure: Primary CF airway epithelial cells were obtained from the UNC Cystic Fibrosis Tissue Procurement and Cell Culture Core. The cells are grown at 37° C. in a Heracell 150i incubator using growth media (BEGM, Fischer). Cells were then transferred to differentiation media (ALI, UNC) for a minimum of 4 weeks on coated Costar snapwells. Two days before the Ussing assay the mucus on the apical surface of the cells was aspirated after incubating with 200 μL of differentiation Media for at least thirty (30) minutes. One day before the Ussing assay test compounds were added to the basolateral surface of the cells at various test concentrations dissolved in DMSO. Duplicate wells were prepared giving a n=3 or n=4 protocol.
Cells were treated for 24 hours with various combinations and concentrations of the test articles, reference standard (3 μM VX809, positive control). Compounds stock solutions were prepared in DMSO and diluted 1/1000 into ALI media to their final assay concentration. Cells were treated with combination solutions (2 mL of each dilution) and incubated at 37° C. for 24 h.
For the equivalent current assay, cells on four Transwell (24-well) plates were treated. Each Transwell plate was filled with 200 μl of HBS on the apical surface and 2 ml on the basolateral surface. Plates were placed horizontally in a heated mount at 37° C., and equilibrated for several minutes. Resting current was measured for 15 min and then blocked by the apical addition of 5 μM benzamil. After 20 min, 10 μM forskolin and 1 μM VX770 were added to both the apical and basolateral side to stimulate CFTR. An increase in chloride current is seen as an upward deflection of the trace. After another 30 min, CFTR-172 (a CFTR inhibitor, 20 μM) and/or bumetanide (20 uM) was added to block CFTR mediated chloride current.
The raw data, current vs. time for the Ussing chamber (sampling interval: 10 s) and voltage vs. time and resistance vs. time for the equivalent current assay (sampling interval: 5 minutes) were transferred to Excel (Microsoft Office Professional, version 14.0.7106.5003) for analysis. CFTR specific current was measured as the average amplitude of the increase in current elicited upon addition forskolin and ending upon addition of the CFTR channel specific blocker CFTR-172. This average is equivalent to the sum of the average forskolin activated and the average VX770-potentiated currents. The average current measured in vehicle (0.1% DMSO) treated cells, Iv, was subtracted from the current for the test article, ITA, or from the corrector reference standard VX809 (3 uM ISTD. For replicate measurements, the average vehicle subtracted response for the test article, was normalized to the average vehicle subtracted inhibitor response of the reference corrector VX809 (3 μM). INSC=(ITA−IV)(ave)/(ISTD−IV)(ave) (Equation 1)
A second endpoint, for the equivalent current assay, evaluated was NAUC, the normalized area under the curve (AUC) measuring the response after addition of forskolin and VX770 to the time point right before the addition of the CFTR inhibitor. The AUC is effectively the average response multiplied by the duration of the response. The AUC of the test article, AUCTA was then corrected by subtracting the average vehicle response, AUCV,ave over the same time range, and normalized as for the inhibitor-sensitive current to the difference of the corrector reference standard VX809 (3 μM VX809r,ave and the vehicle response: NAUCTA=[AUCTA−AUCV,ave]/[AUCVx809r,ave−AUCV,ave] (Equation 2).
The normalized value for DMSO is 0.0 and for VX-809 alone is 1.0. Combinations of compounds with VX-809 that give normalized values greater than 1.0 show activity in the combination assay. A value of 2 means the test compound doubles the effect to VX-809 alone.
Experiments were run with a minimum of n=4 replicates per concentration. […]

T1 sequence (P13569 with tags, fused parts or gaps DEL508-508): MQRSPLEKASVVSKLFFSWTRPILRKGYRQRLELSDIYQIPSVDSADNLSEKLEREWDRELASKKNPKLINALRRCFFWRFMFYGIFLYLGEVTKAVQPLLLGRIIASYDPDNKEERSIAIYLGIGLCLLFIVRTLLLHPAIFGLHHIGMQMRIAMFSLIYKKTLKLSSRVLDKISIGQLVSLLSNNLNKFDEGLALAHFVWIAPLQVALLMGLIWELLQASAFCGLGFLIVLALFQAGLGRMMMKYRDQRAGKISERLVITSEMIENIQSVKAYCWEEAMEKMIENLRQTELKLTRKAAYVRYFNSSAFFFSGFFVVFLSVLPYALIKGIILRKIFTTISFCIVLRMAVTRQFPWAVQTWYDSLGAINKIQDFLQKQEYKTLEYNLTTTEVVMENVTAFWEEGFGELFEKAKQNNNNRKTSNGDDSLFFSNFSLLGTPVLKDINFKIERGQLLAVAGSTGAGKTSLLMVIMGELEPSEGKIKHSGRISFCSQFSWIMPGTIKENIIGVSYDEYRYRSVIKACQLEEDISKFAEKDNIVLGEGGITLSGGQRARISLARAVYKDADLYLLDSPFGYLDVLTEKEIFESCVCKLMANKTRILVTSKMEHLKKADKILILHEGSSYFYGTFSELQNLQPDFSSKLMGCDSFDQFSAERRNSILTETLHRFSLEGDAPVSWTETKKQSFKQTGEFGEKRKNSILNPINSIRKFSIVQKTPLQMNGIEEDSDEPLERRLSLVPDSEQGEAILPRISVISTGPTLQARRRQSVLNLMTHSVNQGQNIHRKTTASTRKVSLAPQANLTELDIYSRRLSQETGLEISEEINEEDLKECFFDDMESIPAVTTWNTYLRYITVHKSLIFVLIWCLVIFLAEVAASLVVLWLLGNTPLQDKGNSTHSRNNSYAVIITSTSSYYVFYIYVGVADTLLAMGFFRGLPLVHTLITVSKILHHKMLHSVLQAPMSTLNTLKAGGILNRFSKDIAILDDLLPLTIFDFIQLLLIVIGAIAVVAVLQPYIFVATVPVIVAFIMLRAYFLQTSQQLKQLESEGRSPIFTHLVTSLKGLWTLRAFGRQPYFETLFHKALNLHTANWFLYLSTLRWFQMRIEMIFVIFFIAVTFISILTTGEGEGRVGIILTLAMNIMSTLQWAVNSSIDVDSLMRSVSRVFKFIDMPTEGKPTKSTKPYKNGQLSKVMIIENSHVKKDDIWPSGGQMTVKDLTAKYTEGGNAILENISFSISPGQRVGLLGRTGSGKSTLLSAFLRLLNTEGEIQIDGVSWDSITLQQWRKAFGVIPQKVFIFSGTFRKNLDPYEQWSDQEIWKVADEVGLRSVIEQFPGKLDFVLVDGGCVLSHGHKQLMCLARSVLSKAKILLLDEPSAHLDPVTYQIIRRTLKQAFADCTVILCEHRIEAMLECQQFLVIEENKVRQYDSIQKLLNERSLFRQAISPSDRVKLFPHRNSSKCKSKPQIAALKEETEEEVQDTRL

O=C1[C@H]2[C@H]3CCCN3[C@]3(C(=O)Nc4c(Cl)cc(Cl)cc43)[C@H]2C(=O)N1c1cc(Cl)cc(Cl)c1 (single isomer, unassigned) [Example 1]
Nauc @ 3 μM: +++ (NAUC “+++” refers to an observed NAUC >170% of positive control) | Nauc @ 10 μM: +++ (NAUC “+++” refers to an observed NAUC >170% of positive control)

O=C1[C@H]2[C@H]3C[C@H](O)CN3[C@]3(C(=O)Nc4c(Cl)cc(Cl)cc43)[C@H]2C(=O)N1c1cc(Cl)cc(Cl)c1 (single isomer, unassigned) [Example 2]
Nauc @ 3 μM: +++ (NAUC “+++” refers to an observed NAUC >170% of positive control) | Nauc @ 10 μM: +++ (NAUC “+++” refers to an observed NAUC >170% of positive control)

O=C1C2C3CCCN3C3(C(=O)Nc4c(Cl)cc(Cl)cc43)C2C(=O)N1c1cc(Cl)cc(Cl)n1 (single isomer, unassigned) [Example 3, 5,7-Dichloro-2′-(4,6-dichloropyridin-2-yl)-3a′,6′,7′,8′,8a′,8b′-hexahydro-1′H-spiro[indoline-3,4′-pyrrolo[3,4-a]pyrrolizine]-1′,2,3′(2′H)-trione]
Nauc @ 3 μM: +++ (NAUC “+++” refers to an observed NAUC >170% of positive control) | Nauc @ 10 μM: +++ (NAUC “+++” refers to an observed NAUC >170% of positive control)

COc1c(Cl)cc(N2C(=O)C3C4CC(C)(C)CN4C4(C(=O)Nc5c(Cl)cc(Cl)cc54)C3C2=O)cc1Cl (single isomer, unassigned) [Example 4, 5,7-dichloro-2′-(3,5-dichloro-4-methoxyphenyl)-7′,7′-dimethyl-3a′,6′,7′,8′,8a′,8b′-hexahydro-1′H-spiro[indoline-3,4′-pyrrolo[3,4-a]pyrrolizine]-1′,2,3′(2′H)-trione]
Nauc @ 3 μM: +++ (NAUC “+++” refers to an observed NAUC >170% of positive control) | Nauc @ 10 μM: ++ (NAUC “++” refers to an observed NAUC 170-140% of positive control)

[2H]C12C(=O)N(c3cc(Cl)cc(Cl)c3)C(=O)C1([2H])C1(C(=O)Nc3c(Cl)cc(Cl)cc31)N1C[C@@H](O)CC12 (single isomer, unassigned) [Example 5, (7′S)-5,7-Dichloro-2′-(3,5-dichlorophenyl)-7′-hydroxy-3a′,6′,7′,8′,8a′,8b′-hexahydro-1′H-spiro[indoline-3,4′-pyrrolo[3,4-a]pyrrolizine]-1′,2,3′(2′H)-trione-3a′,8b′-d2]
Nauc @ 3 μM: +++ (NAUC “+++” refers to an observed NAUC >170% of positive control) | Nauc @ 10 μM: +++ (NAUC “+++” refers to an observed NAUC >170% of positive control)

COc1cc(Cl)cc(N2C(=O)C3C4C[C@H](F)CN4C4(C(=O)Nc5c(Cl)cc(Cl)cc54)C3C2=O)c1 (single isomer, unassigned) [Example 6, (7′S)-5,7-Dichloro-2′-(3-chloro-5-methoxyphenyl)-7′-fluoro-3a′,6′,7′,8′,8a′,8b′-hexahydro-1′H-spiro[indoline-3,4′-pyrrolo[3,4-a]pyrrolizine]-1′,2,3′(2′H)-trione]
Nauc @ 3 μM: +++ (NAUC “+++” refers to an observed NAUC >170% of positive control) | Nauc @ 10 μM: +++ (NAUC “+++” refers to an observed NAUC >170% of positive control)

O=C1[C@H]2[C@@H](C(=O)N1c1cc(Cl)cc(Cl)c1)[C@]1(C(=O)Nc3c(Cl)cc(Cl)cc31)N1CCC[C@@H]21 (single isomer, unassigned) [Example 13]
Nauc @ 3 μM: +++ (NAUC “+++” refers to an observed NAUC >170% of positive control) | Nauc @ 10 μM: +++ (NAUC “+++” refers to an observed NAUC >170% of positive control)

O=C1C2C3CCCN3C3(C(=O)Nc4c(Cl)cc(Cl)cc43)C2C(=O)N1c1cccc(C(F)(F)F)c1 (single isomer, unassigned) [Example 24]
Nauc @ 3 μM: +++ (NAUC “+++” refers to an observed NAUC >170% of positive control) | Nauc @ 10 μM: +++ (NAUC “+++” refers to an observed NAUC >170% of positive control)
